# Measurements as given in patent US8859615B2, “Compounds, compositions and methods for reducing toxicity and treating or preventing diseases” (priority 2008, dated 2014).
# Read-outs that look alike come from different tables or passages of the source.
# Assays:
# [1] = system: AKR1C2 and AKR1C3 in human neuroblastoma IMR-32 cells; assay: Induction of AKR1C enzymes, coumberone metabolism (Tables 12, 13); settings: for Fold induction of AKR1C2 and AKR1C3 in IMR-32 cells (result in words): inducer varied from 50 nM to 60 μM
# Experimental: (§1) Compounds were screened for AKR1C enzyme activity as set forth in Halim, M.; Yee, D. J. and Sames, D. J. Am. Chem. Soc. 2008, […], 14123-14128. […] Specifically, coumberone metabolism studies in IMR-32 can be done as follows: Early-passage (<P25) IMR-32 cells were seeded at a density of 4×10^4 cells/well in 96-well dish. They were then treated with the various inducers or DMSO vehicle (0.5% v/v) control. The concentration of each inducer was varied from 50 nM to 60 μM and the cells were incubated with these for either 24 or 48 hours. 72 hours after seeding, the media was removed and 100 μL of experimental media (DMEM without phenol red supplemented with 100 units/ml penicillin, 100 μg/ml streptomycin, 4 mM L-glutamine and 1% charcoal-dextran treated FBS) was added and incubated for 2 hrs. 100 μl more of the experimental media containing Coumberone (final concentration of 5 μM) was then added. The fluorescence of the cell culture medium was recorded on a plate reader MicroMax 384 connected to a Jobin Yvon Fluorolog by detecting fluorescence at 510 nm upon excitation at 385 nm. The reading was taken every 6 hours for 72 hours. Metabolic conversion rate was obtained by measuring the change in fluorescence per hour for the first 36 hours. The relative increase in metabolic rate was calculated by dividing the metabolic conversion rates of cells incubated with the activator compounds with those incubated with DMSO vehicle. […] Fold-induction is the increase metabolic activity of the reporter. […] “None” indicates no observed induction.
# The IMR-32 induction assay was run as follows. Early-passage (<P25) IMR-32 cells were seeded at a density of 4×10^4 cells/well in 96-well dish. They were then treated with the various inducers or DMSO vehicle (0.5% v/v) control. The concentration of each inducer was varied from 50 nM to 60 μM and the cells were incubated with these for either 24 or 48 hours. 72 hours after seeding, the media was removed and 100 μL of experimental media (DMEM without phenol red supplemented with 100 units/ml penicillin, 100 μg/ml streptomycin, 4 mM L-glutamine and 1% charcoal-dextran treated FBS) was added and incubated for 2 hrs. 100 μl more of the experimental media containing Coumberone (final concentration of 5 μM) was then added. The fluorescence of the cell culture medium was recorded on a plate reader MicroMax 384 connected to a Jobin Yvon Fluorolog by detecting fluorescence at 510 nm upon excitation at 385 nm. The reading was taken every 6 hours for 72 hours. Metabolic conversion rate was obtained by measuring the change in fluorescence per hour for the first 36 hours. The relative increase in metabolic rate was calculated by dividing the metabolic conversion rates of cells incubated with the activator compounds with those incubated with DMSO vehicle. […] J. Am. Chem. Soc. 2008, 130, 14123-[…].
# [2] = system: human neuroblastoma IMR-32 cells; assay: 50% toxicity in the IMR-32 induction assay (Table 12); type: cell-based
# Experimental: as §1
# [3] = system: CCRF-CEM/VBL100 vinblastine-resistant cells; assay: In vitro cytotoxicity against vinblastine-resistant CCRF-CEM subline; type: cell-based, human; settings: for IC50: Homo sapiens, CCRF-CEM
# Experimental: (§2) The cytotoxicity IC50 of each compound was measured with the XTT assay using the 2,3-bis(2-methoxy-4-nitro-5-sulfophenyl)-5-[(phenylamino)carbonyl]-2H-tetrazolium hydroxide (XTT) microculture method as described in Scudiero et al., Cancer Res., 48:4827 (1988), the contents of which are hereby incorporated by reference in their entirety. The CCK-8 assay is a cell counting kit-8 (CCK-8) tetrazolium assay using a 96-well microplate (Dojindo Molecular Technologies, Inc., Rockville, Md.) (M. Ishiyama et al., Biol. Pharm. Bull. 19: 1518, 1996). Absorbance was measured by Powerwave a XS microplate spectrophotometer. This method described is considered a general method in vitro cytotoxicity studies.
# (§3) The data in Tables 2X, 3A-E, 4, 5, and 6 were obtained using the cell counting kit-8 (CCK-8) tetrazolium assay in a 96-well microplate. Five to seven concentrations of each compound in triplicate were used, and the IC50 values were determined by CompuSyn software automation (Chou T C. and Martin N. ComboSyn, Inc., 2006) based on the median-effect equation and plot (Chou T C. J. Theor. Biol. 59:235-276, 1976; Chou T C. Pharmacol. Rev. 58: 621-681, 2006). […] The r value defines the correlation coefficient of the median-effect plot which signifies the conformity to the mass-action law principle (Chou T C. J. Theor. Biol. 59:235-276, 1976; Chou T C. Pharmacol. Rev. 58:621-681, 2006). These parameters were determined by CompuSyn simulation (available at http://www.combosyn.com).
# (§4) CCRF-CEM human T-cell acute lymphoblastic leukemia cells and the corresponding vinblastine-resistant cells (CCRF-CEM/VBL100) were cultured at an initial density of 5×10^4 cells per milliliter. The cultured cells were maintained in a 5% CO2-humidified atmosphere at 37° C. in RPMI medium 1640 (GIBCO/BRL) containing penicillin (100 units/mL), streptomycin (100 μg/mL, GIBCO/BRL), and 10% heat-inactivated fetal bovine serum. The cytotoxicity of each Compound of the invention was measured using the 2,3-bis(2-methoxy-4-nitro-5-sulfophenyl)-5-[(phenylamino)carbonyl]-2H-tetrazolium hydroxide (XTT) microculture method as described in Scudiero et al., Cancer Res., 48:4827 (1988), the contents of which are hereby incorporated by reference in their entirety.
# (§5) Absorbance was measured by Powerwave XS microplate spectrophotometer.
# [4] = system: CCRF-CEM human T-cell acute lymphoblastic leukemia cells; assay: In vitro cytotoxicity against CCRF-CEM (XTT / CCK-8 tetrazolium assay, 72 hr); settings: for IC50: Homo sapiens, CCRF-CEM
# Experimental: as §2, §3, §4, §5
# [5] = system: CCRF-CEM subline resistant to TAXOL; assay: In vitro cytotoxicity against TAXOL-resistant CCRF-CEM subline; type: cell-based, human; settings: for IC50: Homo sapiens, CCRF-CEM
# Experimental: as §3, §5
# [6] = Homo sapiens, IMR-32, read-out: 50% toxicity in IMR-32 cells
# [7] = Homo sapiens, IMR-32; read-out: 50% toxicity in IMR-32 cells
# [8] = 72 h, Table 3D, CCK-8, 72-hr incubation, read-out: IC50 CCRF-CEM/Vinblastine
# [9] = 72 h, read-out: IC50 CCRF-CEM, Table 3D, CCK-8, 72-hr incubation
# [10] = read-out: IC50 (in μM), cytotoxic potency against cancer cell line growth in vitro, Table 3C, cell line not given
# [11] = Table 3D, CCK-8, 72-hr incubation, read-out: IC50 CCRF-CEM/TAXOL
# [12] = Table 3E, read-out: IC50 CCRF-CEM/Vinblastine
# [13] = read-out: IC50 CCRF-CEM, Table 3E
# [14] = Table 3E, read-out: IC50 CCRF-CEM/TAXOL
# [15] = Homo sapiens, IMR-32, read-out: Fold induction of AKR1C2 and AKR1C3 in IMR-32 cells
structure (smiles),measurement,setting,value
C[C@@]12COC(=O)[C@]1(C)[C@@H]1O[C@]3(C)[C@@H](O)C[C@]24OC(=O)CC134 (some centres unmarked) [Compound 31],Fold induction of AKR1C2 and AKR1C3 in IMR-32 cells (result in words),[1],None
same,IC50,[2]; [6],> 40 µM
C[C@]12COC(=O)[C@@]1(C)[C@H]1O[C@@]3(C)[C@H](O)C[C@@]24OC(=O)CC134 (some centres unmarked) [Compound 32],Fold induction of AKR1C2 and AKR1C3 in IMR-32 cells (result in words),[1],None
same,IC50,[2]; [6],> 40 µM
CC1=C[C@@H]2OC[C@@H]3C[C@@]4(O)C[C@]3(C)[C@]2(CC1)CO4 [Compound 34],Fold induction of AKR1C2 and AKR1C3 in IMR-32 cells (result in words),[1],None
same,IC50,[2]; [6],> 40 µM
C=C1CO[C@H]2[C@@H]3C(=O)C[C@@H](C(C)C)[C@]3(C)C[C@H]3OC(=O)C[C@@]3(C)[C@@]12O [Compound 35],Fold induction of AKR1C2 and AKR1C3 in IMR-32 cells (result in words),[1],None
same,IC50,[2]; [7],> 50 µM
C=C[C@H](C#CC#CC[C@H]1OC(C)(C)O[C@@H]1CCCCCCC)OC(=O)/C=C/c1ccccc1 [Compound (E)],IC50,[3]; [8],106 µM
same,fold of cross-resistance (CCRF-CEM/Vinblastine vs parent cell line),"[3]; Table 3D, given as x or -fold",0.17 fold
same,anti-cancer activity in the in vitro cytotoxicity assay,[4],active against cancer
same,IC50,[4]; [9],642 µM
same,IC50,[4]; [10],642 µM
same,IC50,[5]; [11],156 µM
same,fold of cross-resistance (CCRF-CEM/TAXOL vs parent cell line),"[5]; Table 3D, given as x or -fold",0.24 fold
C=C[C@H](C#CC#CC[C@H]1OC(C)(C)O[C@@H]1CCCCCCC)OC(C)=O [Compound (F)],IC50,[3]; [8],8.56 µM
same,IC50,[4]; [9],3.88 ± 0.85 µM
same,IC50,[4]; [10],3.88 µM
same,IC50,[5]; [11],7.58 µM
C=CC(C)(O)C#CC#CC[C@H]1OC(C)(C)O[C@@H]1CCCCCCC (some centres unmarked) [Compound (G)],IC50,[3]; [8],7.3 µM
same,IC50,[4]; [9],3.77 ± 0.48 µM
same,IC50,[4]; [10],3.77 µM
same,IC50,[5]; [11],6.16 µM
C=C[C@H](C#CC#CC[C@H]1OC(C)(C)O[C@@H]1CCCCCCC)OC [Compound (H)],IC50,[3]; [8],26.6 µM
same,IC50,[4]; [9],21.6 µM
same,IC50,[4]; [10],21.6 µM
same,IC50,[5]; [11],15.1 µM
CCCCCCC[C@H]1OC(C)(C)O[C@@H]1CC#CC#C/C=C/CO [Compound (L)],IC50,[3]; [8],2.76 µM
same,IC50,[4]; [9],1.92 ± 0.16 µM
same,IC50,[4]; [10],1.92 µM
same,IC50,[5]; [11],2.91 µM
"CCCCCCC[C@H]1OC(C)(C)O[C@@H]1Cc1ccc(C=O)cc1 [Compound (N), 4-(((4R,5R)-5-heptyl-2,2-dimethyl-1,3-dioxolan-4-yl)methyl)benzaldehyde]",IC50,[3]; [12],13.6 µM
same,IC50,[4]; [13],12.6 µM
same,IC50,[5]; [14],19.4 µM
"C=CC(O)c1ccc(C[C@H]2OC(C)(C)O[C@@H]2CCCCCCC)cc1 (stereo partly drawn) [Compound (O), 1-(4-(((4R,5R)-5-heptyl-2,2-dimethyl-1,3-dioxolan-4-yl)methyl)phenyl)prop-2-en-1-ol]",IC50,[3]; [12],6.52 µM
same,IC50,[4]; [13],5.25 µM
same,IC50,[5]; [14],10.3 µM
"CCCCCCC[C@H]1OC(C)(C)O[C@@H]1Cc1ccc(C(O)CC)cc1 (stereo partly drawn) [Compound (P), 1-(4-(((4R,5R)-5-heptyl-2,2-dimethyl-1,3-dioxolan-4-yl)methyl)phenyl)propan-1-ol]",IC50,[3]; [12],5.14 µM
same,IC50,[4]; [13],4.18 µM
same,IC50,[5]; [14],11.9 µM
CCCCCCC[C@H]1OC(C)(C)O[C@@H]1CC#CC#C[C@H](O)c1ccccc1 [Example 20],Fold induction of AKR1C2 and AKR1C3 in IMR-32 cells (result in words),[1],None
same,IC50,[2]; [7],~10 µM
C=C[C@H](O)C#CC#CC[C@H]1OC(C)(C)O[C@@H]1CCCCCCC [Example 21],fold induction at 1 µM,[1]; [15],1.4
same,IC50,[2]; [7],~4 µM
"CCCCCCC[C@@H](O)[C@H](O)CC#CC#C[C@H](O)c1ccccc1 [Example 24, (1R,7R,8R)-1-phenyl-2,4-pentadecadiyne-1,7,8-triol]",EC50,"[1]; Homo sapiens, IMR-32, read-out: EC50 of induction of AKR1C2 and AKR1C3 in IMR-32 cells",~3.5 µM
same,fold induction at 5 µM,[1]; [15],1.5
same,IC50,[2]; read-out: 50% toxicity in IMR-32 cells,~8 µM
CCCCCCC[C@H]1OC(C)(C)O[C@@H]1CC#CC#C/C=C/C(OC)c1ccccc1 (some centres unmarked) [Example 25],Fold induction of AKR1C2 and AKR1C3 in IMR-32 cells (result in words),[1],None
same,IC50,[2]; [7],~32.5 µM
CC[C@]1(O)C[C@@H]2CN(CCc3c([nH]c4ccccc34)[C@@](C(=O)OC)(c3cc4c(cc3OC)N(C)[C@H]3[C@@](O)(C(=O)OC)[C@H](OC(C)=O)[C@]5(CC)C=CCN6CC[C@]43[C@@H]65)C2)C1 [Vinblastine],IC50,"[3]; 72 h, Table 3A-2, CCK-8, 72-hr exposure, read-out: CCRF-CEM/VBL (IC50 in μM)",0.669 µM
same,Fold of resistance (IC50 ratio CCRF-CEM/VBL vs CCRF-CEM),[3]; Table 3A-2,608 fold
same,IC50,"[4]; 72 h, read-out: CCRF-CEM (IC50 in μM), Table 3A-2, CCK-8, 72-hr exposure",0.0011 µM
same,IC50,"[5]; Table 3A-2, CCK-8, 72-hr exposure, read-out: CCRF-CEM/TAXOL (IC50 in μM)",0.282 µM
same,Fold of resistance (IC50 ratio CCRF-CEM/TAXOL vs CCRF-CEM),[5]; Table 3A-2,256 fold
CCCCCCC[C@@H](O)[C@H](O)CC#CC#CC[C@H](O)[C@@H](O)CCCCCCC [analog 2],Fold induction of AKR1C2 and AKR1C3 in IMR-32 cells (result in words),[1],None
same,IC50,[2]; [6],~25 µM
